Series [1] deals with rats. The series can be described thus: Sedative effect: Irwin test (behaviour of rats). The class given is in vivo. Particulars: i.p.; for Atax. (ataxia) / pas. (passivity, sedation, prostration): score 0 to 3, 1, 2 and 3 hours after treatment. The procedure:
Pas.: Passivity, sedation, prostration. Quantitative evaluation between 0 and 3. They are performed 1, 2 and 3 hours after the treatment.
Atax.: Ataxia, the modifications of coordination in movement are evaluated. The are evaluated between 0 and 3. They are performed 1, 2 and 3 hours after the treatment.

Series [2] in a line: Sedative effect: potentiation of pentobarbital-induced duration of sleep. The note with it: for Potentiation of duration of sleep: p.o., vs control group with pentobarbital 35 mg/kg, s.c.; for potentiation of pentobarbital-induced duration of sleep (in words): orally.
Experimental: The studied products were administered orally. […] The duration of sleep was compared with a control group of animals treated only with sodium pentobarbital.
The subject of series [3] is 48/80-induced death in rats. The experiment in a line: Protection against mortality caused by compound 48/80 in rats (antihistaminic activity in vivo). Particulars: Rattus norvegicus, ip, 60 min before 48/80 (0.5 mg/kg, i.v.), survival 4 hours after, read-out: ED-50 (protection from 48/80-induced death). The procedure:
The antihistaminic activity was studied by determining the protection against the mortality caused by the product 48/80 in rats. This trial was performed according to the technique described by C.
The activity of the products is studied at several doses in order to determine the dose which is capable of protecting 50% of the animals (ED-50).
Finally, the antihistaminic activity of the product of Example 1 is indicated.

Regarding `CCOCCn1c(CN2CCCN(CCCCn3cccn3)CC2)nc2ccccc21` [Example 1, 1-(2-ethoxyethyl)-2-{4-[4-(pyrazol-1-yl)butyl]homopiperazin-1-ylmethyl}benzimidazole], the “sedative effect (in words)” value in series [1] (Irwin test, rats) was “very weak sedative effect”. Moreover, the “Atax. (ataxia)” value in series [1] (dose 80 mg/kg) is reported as 0.2. Also, the “pas. (passivity, sedation, prostration)” value in series [1] (dose 80 mg/kg) is reported as 0. Moreover, the “Potentiation of duration of sleep” value in series [2] (dose 80 mg/kg) was 8%; in series [2] (dose 160 mg/kg), 1%. The “potentiation of pentobarbital-induced duration of sleep (in words)” value in series [2] (even at 160 mg/kg, the maximum dose tested) is on record as “does not potentiate”. In series [3], the ED50 was 0.04 mg/kg.
For the compound `CN(C)CCOC(c1ccccc1)c1ccccc1` [Difenhidramine, reference compound], in series [1] (dose 40 mg/kg), the “Atax. (ataxia)” value was determined as 0.9 and the “pas. (passivity, sedation, prostration)” value is given as 0. The “potentiation of pentobarbital-induced duration of sleep (in words)” value in series [2] (at a dose of 20 mg/kg) is given as “significantly potentiates”. Besides, in series [3], the ED50 is 5.4 mg/kg.

These data come from US5214040A, “Nonsaditive antihistaminics derived from benzimidazoles” (Laboratorios del Dr. Esteve, S.A., priority 1991, dated 1993).
